Patent US20250197374A1, “WEE1 DEGRADING COMPOUNDS AND USES THEREOF” (BRISTOL-MYERS SQUIBB COMPANY, priority 2023, published 2025)

Assays:
Format in all cases: cell-based
WEE1 = target: T1, WEE1 (Homo sapiens, UniProt P30291+Q96SW2); experiment: WEE1-ePL degradation assay (293T-LentiX, InCELL Hunter luminescence, 4 hr); conditions: for 293T-LentiX WEE1-ePL Degradation 4 hr YMin (%): lower limit of fit, % of DMSO control signal remaining; for DC50: LentiX-HEK293T cells expressing WEE1-ePL, 4 hr incubation, read-out: 293T-LentiX WEE1-ePL Degradation 4 hr EC50
T1 construct: C-terminal ePL-tagged (DiscoverX, Fremont, CA) full-length WEE1 expression construct; expressed in transfected cells; host or cells: LentiX-HEK293T (Invitrogen), lentivirally transduced; the cells also over-express GSPT1-GN
Outline: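 LentiX-HEK293T cells expressing C-terminally ePL-tagged full-length WEE1 plus non-degradable GSPT1-GN (G575N, N-terminal 158 aa truncated). Treated 4 h at 37 °C with a 10-point, 3-fold series from 1 or 10 µM, then read by InCELL Hunter luminescence. EC50 from four-parameter logistic fit, Ymax set by DMSO control.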

MKN45 cells = experiment: MKN45 cell proliferation assay (Cell-Titer-Glo, 120 hr); conditions: for MKN45 Cell Prolif. 120 hr YMin (%): minimal percent of DMSO control observed; for EC50: Homo sapiens, MKN-45, 120 h, read-out: MKN45 Cell Prolif. 120 hr EC50
Outline: (§1)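 MKN45 (400/well) and MDA-MB-231 (800/well) cells in RPMI with 10% FBS were exposed to 10-point half-log doses from 1 or 10 uM (0.1% DMSO) for 120 h at 37 °C. Viability was read by CellTiter-Glo luminescence. EC50 came from blank-subtracted, %DMSO four-parameter fits, with Ymin-obs as the lowest %DMSO observed.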

MDA-MB-231 cells = experiment: MDA-MB-231 cell proliferation assay (Cell-Titer-Glo, 120 hr); conditions: for EC50: Homo sapiens, MDA-MB-231, 120 h, read-out: MDA-MB 231 Cell Prolif. 120 hr EC50; for MDA-MB 231 Cell Prolif. 120 hr YMin (%): minimal percent of DMSO control observed
Outline: as §1

T1 sequence (P30291 whole entry): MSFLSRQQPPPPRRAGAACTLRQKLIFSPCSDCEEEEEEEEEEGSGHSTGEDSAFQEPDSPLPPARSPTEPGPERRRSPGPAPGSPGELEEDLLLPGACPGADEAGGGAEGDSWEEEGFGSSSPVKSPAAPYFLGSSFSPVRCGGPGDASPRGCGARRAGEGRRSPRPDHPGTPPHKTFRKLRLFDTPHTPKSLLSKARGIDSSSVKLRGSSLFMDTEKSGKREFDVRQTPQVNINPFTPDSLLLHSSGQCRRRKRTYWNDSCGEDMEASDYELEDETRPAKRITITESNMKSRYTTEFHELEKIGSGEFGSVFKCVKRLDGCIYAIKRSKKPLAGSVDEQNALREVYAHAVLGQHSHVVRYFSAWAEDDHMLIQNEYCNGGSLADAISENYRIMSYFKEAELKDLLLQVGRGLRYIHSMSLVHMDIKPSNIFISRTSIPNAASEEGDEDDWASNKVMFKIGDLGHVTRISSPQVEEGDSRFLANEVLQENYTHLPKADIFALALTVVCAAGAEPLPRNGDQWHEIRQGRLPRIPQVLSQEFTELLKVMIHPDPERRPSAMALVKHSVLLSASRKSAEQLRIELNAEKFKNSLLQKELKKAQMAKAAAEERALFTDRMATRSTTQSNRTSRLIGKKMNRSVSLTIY
T1 sequence (Q96SW2 whole entry): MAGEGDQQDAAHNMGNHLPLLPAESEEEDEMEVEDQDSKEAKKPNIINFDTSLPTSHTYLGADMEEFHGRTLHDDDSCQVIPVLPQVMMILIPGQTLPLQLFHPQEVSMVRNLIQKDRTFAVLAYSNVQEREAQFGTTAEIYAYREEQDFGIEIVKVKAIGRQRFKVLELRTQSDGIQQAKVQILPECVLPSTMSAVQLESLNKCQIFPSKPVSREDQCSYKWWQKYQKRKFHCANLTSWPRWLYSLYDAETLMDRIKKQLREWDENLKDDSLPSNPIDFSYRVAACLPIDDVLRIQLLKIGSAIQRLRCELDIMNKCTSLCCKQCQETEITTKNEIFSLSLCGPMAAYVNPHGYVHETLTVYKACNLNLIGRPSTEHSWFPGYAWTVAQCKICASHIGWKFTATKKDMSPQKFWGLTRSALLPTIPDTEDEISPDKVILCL
T1 sequence (Q16531 whole entry partner): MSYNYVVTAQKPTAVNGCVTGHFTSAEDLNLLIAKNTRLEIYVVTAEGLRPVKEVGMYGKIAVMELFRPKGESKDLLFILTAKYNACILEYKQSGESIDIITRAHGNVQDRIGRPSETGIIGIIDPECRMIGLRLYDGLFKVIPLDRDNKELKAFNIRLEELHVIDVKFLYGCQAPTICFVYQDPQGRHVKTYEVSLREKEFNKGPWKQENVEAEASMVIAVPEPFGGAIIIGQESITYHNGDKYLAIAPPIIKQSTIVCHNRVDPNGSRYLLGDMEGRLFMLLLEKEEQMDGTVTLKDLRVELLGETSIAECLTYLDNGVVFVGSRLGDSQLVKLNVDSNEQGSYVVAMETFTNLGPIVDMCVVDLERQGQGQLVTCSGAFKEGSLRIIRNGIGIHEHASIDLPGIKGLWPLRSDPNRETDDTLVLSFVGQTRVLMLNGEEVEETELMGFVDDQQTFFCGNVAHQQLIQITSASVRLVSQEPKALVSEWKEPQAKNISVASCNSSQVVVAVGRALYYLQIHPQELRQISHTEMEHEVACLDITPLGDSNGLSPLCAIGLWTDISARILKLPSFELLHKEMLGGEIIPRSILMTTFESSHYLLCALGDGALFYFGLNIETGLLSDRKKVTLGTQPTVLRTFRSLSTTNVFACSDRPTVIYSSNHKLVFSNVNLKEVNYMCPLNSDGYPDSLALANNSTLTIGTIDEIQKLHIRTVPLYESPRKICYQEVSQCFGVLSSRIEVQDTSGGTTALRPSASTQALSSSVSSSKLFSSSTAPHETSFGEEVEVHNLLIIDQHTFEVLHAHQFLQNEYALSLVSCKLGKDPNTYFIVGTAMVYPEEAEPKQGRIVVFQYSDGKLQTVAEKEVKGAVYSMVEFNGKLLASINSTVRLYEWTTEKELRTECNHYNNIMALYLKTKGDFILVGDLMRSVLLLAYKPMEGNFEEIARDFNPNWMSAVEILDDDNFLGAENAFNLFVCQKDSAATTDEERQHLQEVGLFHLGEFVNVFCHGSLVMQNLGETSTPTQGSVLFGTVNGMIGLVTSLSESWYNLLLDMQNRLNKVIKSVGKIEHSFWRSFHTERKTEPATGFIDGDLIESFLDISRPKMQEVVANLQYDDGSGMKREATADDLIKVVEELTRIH

COC[C@@H]1CN(Cc2cc(F)c3nc(C45C6C7C4C4C5C6C74C(C)(C)O)ccc3c2)C[C@H]1Oc1ccc2c(c1)CN([C@H]1CCC(=O)NC1=O)C2=O (stereo partly drawn) [Example 121, (S)-3-(5-(((3S,4S)-1-((8-fluoro-2-(4-(2-hydroxypropan-2-yl)cuban-1-yl)quinolin-6-yl)methyl)-4-(methoxymethyl)pyrrolidin-3-yl)oxy)-1-oxoisoindolin-2-yl)piperidine-2,6-dione]
293T-LentiX WEE1-ePL Degradation 4 hr YMin (%) (WEE1): 18.7% | MKN45 Cell Prolif. 120 hr YMin (%) (MKN45 cells): 7.5% | EC50 (MDA-MB-231 cells): 26 nM | MDA-MB 231 Cell Prolif. 120 hr YMin (%) (MDA-MB-231 cells): 13.2%

COC[C@@H]1CN(Cc2ccc3nc(C4CCN(C5CN(C)C5)CC4)ccc3c2)C[C@H]1Oc1ccc2c(c1)CN([C@H]1CCC(=O)NC1=O)C2=O [Example 122, (3S)-3-(5-{[(3S,4S)-4-(methoxymethyl)-1-({2-[1-(1-methylazetidin-3-yl)piperidin-4-yl]quinolin-6-yl}methyl)pyrrolidin-3-yl]oxy}-1-oxo-2,3-dihydro-1H-isoindol-2-yl)piperidine-2,6-dione]
DC50 (WEE1): 2 nM | 293T-LentiX WEE1-ePL Degradation 4 hr YMin (%) (WEE1): 22.0% | EC50 (MKN45 cells): 2 nM | MKN45 Cell Prolif. 120 hr YMin (%) (MKN45 cells): 8.5% | EC50 (MDA-MB-231 cells): 23 nM | MDA-MB 231 Cell Prolif. 120 hr YMin (%) (MDA-MB-231 cells): 59.3%

COC[C@@H]1CN(Cc2ccc3nc(C4CCOCC4)ccc3n2)C[C@H]1Oc1ccc2c(c1)CN([C@H]1CCC(=O)NC1=O)C2=O [Example 128, (3S)-3-(5-{[(3S,4S)-4-(methoxymethyl)-1-{[6-(oxan-4-yl)-1,5-naphthyridin-2-yl]methyl}pyrrolidin-3-yl]oxy}-1-oxo-2,3-dihydro-1H-isoindol-2-yl)piperidine-2,6-dione]
DC50 (WEE1): 1 nM | 293T-LentiX WEE1-ePL Degradation 4 hr YMin (%) (WEE1): 30.5% | EC50 (MKN45 cells): 11 nM | MKN45 Cell Prolif. 120 hr YMin (%) (MKN45 cells): 18.2% | EC50 (MDA-MB-231 cells): 127 nM | MDA-MB 231 Cell Prolif. 120 hr YMin (%) (MDA-MB-231 cells): 83.3%

COC[C@@H]1CN(Cc2cnc3nc(C4CCOCC4)ccc3c2)C[C@H]1Oc1ccc2c(c1)CN([C@H]1CCC(=O)NC1=O)C2=O [Example 129, (3S)-3-(5-{[(3S,4S)-4-(methoxymethyl)-1-{[7-(oxan-4-yl)-1,8-naphthyridin-3-yl]methyl}pyrrolidin-3-yl]oxy}-1-oxo-2,3-dihydro-1H-isoindol-2-yl)piperidine-2,6-dione]
DC50 (WEE1): 2 nM | 293T-LentiX WEE1-ePL Degradation 4 hr YMin (%) (WEE1): 26.0% | EC50 (MKN45 cells): 10 nM | MKN45 Cell Prolif. 120 hr YMin (%) (MKN45 cells): 10.6% | EC50 (MDA-MB-231 cells): 319 nM | MDA-MB 231 Cell Prolif. 120 hr YMin (%) (MDA-MB-231 cells): 80.6%

COC[C@@H]1CN(Cc2cnc3nc(C4CCOCC4)ncc3c2)C[C@H]1Oc1ccc2c(c1)CN([C@H]1CCC(=O)NC1=O)C2=O [Example 134, (3S)-3-(5-{[(3S,4S)-4-(methoxymethyl)-1-{[2-(oxan-4-yl)pyrido[2,3-d]pyrimidin-6-yl]methyl}pyrrolidin-3-yl]oxy}-1-oxo-2,3-dihydro-1H-isoindol-2-yl)piperidine-2,6-dione]
DC50 (WEE1): 37 nM | 293T-LentiX WEE1-ePL Degradation 4 hr YMin (%) (WEE1): 32.0% | EC50 (MKN45 cells): 108 nM | MKN45 Cell Prolif. 120 hr YMin (%) (MKN45 cells): 12.9% | EC50 (MDA-MB-231 cells): 1420 nM | MDA-MB 231 Cell Prolif. 120 hr YMin (%) (MDA-MB-231 cells): 75.6%

COC[C@@H]1CN(Cc2cc3ccc(C4CCOCC4)nc3cn2)C[C@H]1Oc1ccc2c(c1)CN([C@H]1CCC(=O)NC1=O)C2=O [Example 135, (3S)-3-(5-{[(3S,4S)-4-(methoxymethyl)-1-{[2-(oxan-4-yl)-1,7-naphthyridin-6-yl]methyl}pyrrolidin-3-yl]oxy}-1-oxo-2,3-dihydro-1H-isoindol-2-yl)piperidine-2,6-dione]
DC50 (WEE1): 1 nM | 293T-LentiX WEE1-ePL Degradation 4 hr YMin (%) (WEE1): 35.7% | EC50 (MKN45 cells): 1 nM | MKN45 Cell Prolif. 120 hr YMin (%) (MKN45 cells): 8.8% | EC50 (MDA-MB-231 cells): 31 nM | MDA-MB 231 Cell Prolif. 120 hr YMin (%) (MDA-MB-231 cells): 55.6%
